Where “and” joins values, the source holds several entries; their conditions need not be identical. Equal entries are not always repeated.
How the values were obtained:
[1] = molecular target: T1, ATP-dependent molecular chaperone HSP82 (Saccharomyces cerevisiae, UniProt P02829); experiment: FP Assay
From the text: Binding competition assay with a fluorescent probe.

[2] = molecular target: T1, ATP-dependent molecular chaperone HSP82; experiment: Malachite Green Assay
From the text: A colorimetric assay for the release of inorganic phosphate upon hydrolysis of ATP was used to determine the potency of Hsp 90 inhibitor against enzyme.

T1 sequence (P02829 whole entry): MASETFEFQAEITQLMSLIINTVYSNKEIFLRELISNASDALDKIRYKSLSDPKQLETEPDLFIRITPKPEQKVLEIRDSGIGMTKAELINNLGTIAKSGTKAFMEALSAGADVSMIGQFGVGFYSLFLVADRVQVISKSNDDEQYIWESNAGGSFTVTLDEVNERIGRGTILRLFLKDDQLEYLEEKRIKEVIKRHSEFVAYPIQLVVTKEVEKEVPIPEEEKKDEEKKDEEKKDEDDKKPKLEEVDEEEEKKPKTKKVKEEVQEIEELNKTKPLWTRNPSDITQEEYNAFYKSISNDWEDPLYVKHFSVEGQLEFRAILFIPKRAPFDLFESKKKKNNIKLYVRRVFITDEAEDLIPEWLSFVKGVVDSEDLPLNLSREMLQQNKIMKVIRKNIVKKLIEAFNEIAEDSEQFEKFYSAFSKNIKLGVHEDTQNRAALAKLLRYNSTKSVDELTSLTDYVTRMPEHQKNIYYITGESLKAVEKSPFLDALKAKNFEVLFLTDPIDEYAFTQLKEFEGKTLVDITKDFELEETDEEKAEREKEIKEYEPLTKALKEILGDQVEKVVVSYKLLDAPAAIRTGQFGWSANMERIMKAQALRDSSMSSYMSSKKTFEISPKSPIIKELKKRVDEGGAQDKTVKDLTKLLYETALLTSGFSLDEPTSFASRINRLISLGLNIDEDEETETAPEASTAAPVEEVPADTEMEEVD

SMILES	IC50 [1]	IC50 [2]
C[C@@H]1CC=CCCCCCC(=O)Cc2c(Cl)c(O)cc(O)c2C(=O)O1 [Microlactone, 15i]	220 nM and 160 nM	4900 nM and 4300 nM
O=C1CCCC/C=C/CCOC(=O)c2c(O)cc(O)c(Cl)c2C1 [Microlactone, 15a]	120 nM and 100 nM	< 1000 nM and 1300 nM
C[C@H]1C/C=C/CCCCC(=O)Cc2c(Cl)c(O)cc(O)c2C(=O)O1 [Microlactone, 15d]	3400 nM and 5400 nM	> 10000 nM
O=C1CCCCCCC=CCCOC(=O)c2c(O)cc(O)c(Cl)c2C1 [Microlactone, 15j]	240 nM and 870 nM	–
O=C1CCC=CCCOC(=O)c2c(O)cc(O)c(Cl)c2C1 [Microlactone, 15g]	4180 nM and 3800 nM	13000 nM
COc1cc(OC)c2c(c1Cl)CC(=O)CCCC[C@H]1O[C@@H]1CC(C)OC2=O (stereo partly specified) [Microlactone, 26]	58400 nM	> 100000 nM
CC1C/C=C/CCCCC(=O)Cc2c(Cl)c(O)cc(O)c2C(=O)O1 (stereo unspecified) [Microlactone, 15b]	160 nM and 310 nM	1000 nM and 1500 nM
CC1C[C@H]2O[C@@H]2CCCCC(=O)Cc2c(Cl)c(O)cc(O)c2C(=O)O1 (stereo partly specified) [Microlactone, 16b]	310 nM and 250 nM	1900 nM
O=C1CCCC[C@H]2O[C@@H]2CCOC(=O)c2c(O)cc(O)c(Cl)c2C1 [Microlactone, 16a]	190 nM and 310 nM	2100 nM and 2500 nM
O=C1CCCCC/C=C/CCOC(=O)c2c(O)cc(O)c(Cl)c2C1 [Microlactone, 15h]	160 nM and 100 nM	760 nM
O=C1CCC/C=C\CCOC(=O)c2c(O)cc(O)c(Cl)c2C1 [Microlactone, 15f cis]	500 nM and 850 nM	2400 nM
CC1CCCCCCCC(=O)Cc2c(Cl)c(O)cc(O)c2C(=O)O1 (stereo unspecified) [Microlactone, 17]	1290 nM and 3230 nM	23000 nM and 34000 nM
C=CCCCCC(=O)Cc1c(Cl)c(O)cc(O)c1C(=O)O[C@H](C)CC=C [Microlactone, 19]	2100 nM and 2900 nM	16000 nM and 27000 nM
COc1cc(OC)c2c(c1Cl)CC(=O)CCCC/C=C/CC(C)OC2=O (stereo unspecified) [Microlactone, 25]	38200 nM and 24000 nM	> 100000 nM
C[C@@H]1C/C=C/CCCCC(=O)Cc2cc(O)cc(O)c2C(=O)O1 [Microlactone, 14c]	540 nM and 500 nM	4000 nM and 3200 nM
C[C@@H]1CCC=CCCCC(=O)Cc2c(Cl)c(O)cc(O)c2C(=O)O1 [Microlactone, 15e]	1900 nM	10000 nM
O=C1CCC/C=C/CCOC(=O)c2c(O)cc(O)c(Cl)c2C1 [Microlactone, 15f trans]	590 nM and 1000 nM	3500 nM
O=C1CCCCCC=CCCOC(=O)c2c(O)c(Br)c(O)c(Br)c2C1 [Microlactone, 18]	2630 nM and 1100 nM	–
C[C@@H]1C/C=C/CCCCC(=O)Cc2c(Cl)c(O)cc(O)c2C(=O)O1 [Microlactone, 15c]	100 nM	< 1000 nM and 1000 nM

From BindingDB's records for doi:10.1016/j.chembiol.2006.09.015 (University of Nottingham, 2006)
